Assay results: US8802678B2, “Carbonylated (aza) cyclohexanes as dopamine D3 receptor ligands” (Bioprojet, priority 2006, dated 2014)

Row | Compound | melting point [°C]
1 | Cc1cc(C)cc(N2CCN(CC[C@H]3CC[C@H](NC(=O)CCCC#N)CC3)CC2)c1 [Example 249, 4-Cyano-N-(4-{2-[4-(3,5-dimethylphenyl)piperazin-1-yl]ethyl}cyclohexyl)butanamide] | 169
2 | Cc1cc(Cl)cc(N2CCN(CC[C@H]3CC[C@H](NC(=O)CC#N)CC3)CC2)c1 [Example 437, N-(4-{2-[4-(3-Chloro-5-methylphenyl)piperazin-1-yl]ethyl}cyclohexyl)-2-cyanoacetamide] | 185
3 | N#Cc1cccc(N2CCN(CC[C@H]3CC[C@H](NC(=O)CC(F)(F)F)CC3)CC2)c1 [Example 511, N-(4-{2-[4-(3-Cyanophenyl)piperazin-1-yl]ethyl}cyclohexyl)-3,3,3-trifluoropropanamide] | 180
4 | CC(=O)CN1CCC(CCN2CCN(c3ccc4c(c3)CCC4)CC2)CC1.Cl.Cl | 291
5 | COCCCC(=O)N[C@H]1CC[C@H](CCN2CCN(c3ccc(C)c(C)c3)CC2)CC1 [Example 506, N-(4-{2-[4-(3,4-Dimethylphenyl)piperazin-1-yl]ethyl}cyclohexyl)-4-methoxybutanamide] | 161
6 | N#CCC(=O)N[C@H]1CC[C@H](CCN2CCC(c3cccc(C(F)(F)F)c3)CC2)CC1 [Example 218, 2-Cyano-N-(4-{2-[4-(3-trifluoromethylphenyl)piperidin-1-yl]ethyl}cyclohexyl)acetamide] | 129
7 | Cc1ccc(N2CCN(CC[C@H]3CC[C@H](NC(=O)C4=CCCC4)CC3)CC2)cc1Cl [Example 491, Cyclopent-1-enecarboxylic acid (4-{2-[4-(3-chloro-4-methylphenyl)piperazin-1-yl]ethyl}cyclohexyl) amide] | 197
8 | CC(=O)CN1CCC(CCN2CCN(c3cccc(C(F)(F)F)c3C)CC2)CC1.Cl.Cl | 300
9 | N#CCC(=O)N[C@H]1CC[C@H](CCN2CCN(c3cc(F)c(F)c(F)c3F)CC2)CC1 [Example 708, 2-Cyano-N-(4-{2-[4-(2,3,4,5-tetrafluorophenyl)piperazin-1-yl]ethyl}cyclohexyl)acetamide] | 214
10 | CC(=O)CN1CCC(CCN2CCN(c3cc(C(C)(C)C)nc(C(C)(C)C)n3)CC2)CC1.Cl.Cl | 310
11 | N#CCC(=O)N[C@H]1CC[C@H](CCN2CCN(c3ccc(F)c(C(F)(F)F)c3)CC2)CC1 [Example 277, 2-Cyano-N-(4-{2-[4-(4-fluoro-3-trifluoromethylphenyl)piperazin-1-yl]ethyl}cyclohexyl)acetamide] | 181
12 | CC(=O)CN1CCC(CCN2CCN(c3cccc(C)c3)CC2)CC1.Cl.Cl | 260
13 | COCC(=O)N[C@H]1CC[C@H](CCN2CCN(c3ccc(Cl)c(Cl)c3F)CC2)CC1 [Example 719, N-(4-{2-[4-(3,4-Dichloro-2-fluorophenyl)piperazin-1-yl]ethyl}cyclohexyl)-2-methoxyacetamide] | 172
14 | Cc1cc(F)cc(N2CCN(CC[C@H]3CC[C@H](NC(=O)CC#N)CC3)CC2)c1 [Example 725, 2-Cyano-N-(4-{2-[4-(3-fluoro-5-methylphenyl)piperazin-1-yl]ethyl}cyclohexyl)acetamide] | 180
15 | O=C(N[C@H]1CC[C@H](CCN2CCN(c3cccc(C(F)(F)F)c3)CC2)CC1)C1=COCC1 [Example 564, 4,5-Dihydrofuran-3-carboxylic acid (4-{2-[4-(3-trifluoromethylphenyl)piperazin-1-yl]ethyl}cyclohexyl) amide] | 175
16 | CCOc1ccccc1N1CCN(CC[C@H]2CC[C@H](NC(=O)CC#N)CC2)CC1 [Example 243, 2-Cyano-N-(4-{2-[4-(2-ethoxyphenyl)piperazin-1-yl]ethyl}cyclohexyl)acetamide] | 138
17 | N#Cc1ccccc1N1CCN(CC[C@H]2CC[C@H](NC(=O)C3=CCCC3)CC2)CC1 [Example 74, Cyclopent-1-enecarboxylic acid (4-{2-[4-(2-cyanophenyl)-piperazin-1-yl]ethyl}cyclohexyl)-amide] | 167
18 | Cc1cccc(N2CCN(CC[C@H]3CC[C@H](NC(=O)CC(F)(F)F)CC3)CC2)c1C#N [Example 115, N-(4-{2-[4-(2-Cyano-3-methylphenyl)piperazin-1-yl]ethyl}cyclohexyl)-3,3,3-trifluoropropanamide] | 207
19 | CC(=O)CN1CCC(CCN2CCN(c3ccc(Cl)c(Cl)c3F)CC2)CC1.Cl.Cl | 230
20 | CC(=O)CN1CCC(CCN2CCN(c3cc(C)ccc3C)CC2)CC1.Cl.Cl | 350
21 | O=C(N[C@H]1CC[C@H](CCN2CCN(c3ccc(F)cc3F)CC2)CC1)C1=CCCC1 [Example 384, Cyclopent-1-enecarboxylic acid (4-{2-[4-(2,4-difluorphenyl)-piperazin-1-yl]ethyl}cyclohexyl) amide] | 205
22 | O=C(N[C@H]1CC[C@H](CCN2CCN(c3cccc(F)c3F)CC2)CC1)C1=CCCC1 [Example 447, Cyclopent-1-enecarboxylic acid (4-{2-[4-(2,3-difluorophenyl)-piperazin-1-yl]ethyl}cyclohexyl) amide] | 225

Row | Compound | melting point [°C]
23 | Cc1c(N2CCN(CC[C@H]3CC[C@H](NC(=O)CCCC#N)CC3)CC2)cccc1C(F)(F)F [Example 230, 4-Cyano-N-(4-{2-[4-(2-methyl-3-trifluoromethylphenyl)piperazin-1-yl]ethyl}cyclohexyl)butanamide] | 162
24 | CCc1cccc(N2CCN(CC[C@H]3CC[C@H](NC(=O)CC(F)(F)F)CC3)CC2)c1 [Example 250, N-(4-{2-[4-(3-Ethylphenyl)-piperazin-1-yl]ethyl}cyclohexyl)-3,3,3-trifluoropropanamide] | 154
25 | Cc1ccc(N2CCN(CC[C@H]3CC[C@H](NC(=O)CC#N)CC3)CC2)c(F)c1 [Example 484, 2-Cyano-N-(4-{2-[4-(2-fluoro-4-methylphenyl)piperazin-1-yl]ethyl}cyclohexyl)acetamide] | 197
26 | COCCCC(=O)N[C@H]1CC[C@H](CCN2CC=C(c3cc(C(F)(F)F)ccc3F)CC2)CC1 | 164
27 | CCOCC(=O)N[C@H]1CC[C@H](CCN2CCN(c3cc(Cl)ccc3Cl)CC2)CC1 [Example 521, N-(4-{2-[4-(2,5-Dichlorophenyl)-piperazin-1-yl]ethyl}cyclohexyl)-2-ethoxyacetamide] | 128
28 | CC(=O)CN1CCC(CCN2CCN(c3cccc4c3OCCCO4)CC2)CC1.Cl.Cl | 280
29 | Cl.N#CCC(=O)N1CCC(CCN2CCN(c3cccc(Cl)c3Cl)CC2)CC1 | 228
30 | CCc1ccccc1N1CCN(CC[C@H]2CC[C@H](NC(=O)CCCC#N)CC2)CC1 [Example 286, 4-Cyano-N-(4-{2-[4-(2-ethylphenyl)piperazin-1-yl]ethyl}cyclohexyl)butanamide] | 124
31 | N#CCCCC(=O)N[C@H]1CC[C@H](CCN2CCN(c3ccc(Cl)cc3Cl)CC2)CC1 [Example 762, 4-Cyano-N-(4-{2-[4-(2,4-dichlorophenyl)piperazin-1-yl]ethyl}cyclohexyl)butanamide] | 162
32 | N#CCC(=O)N[C@H]1CC[C@H](CCN2CCN(c3cccc(Cl)c3)CC2)CC1 [Example 156, N-(4-{2-[4-(3-Chlorophenyl)-piperazin-1-yl]ethyl}cyclohexyl)-2-cyanoacetamide] | 186 to 187
33 | CCN(CC)CCC(=O)N[C@H]1CC[C@H](CCN2CCN(c3cccc(F)c3)CC2)CC1 [Example 411, 3-Diethylamino-N-(4-{2-[4-(3-fluorophenyl)piperazin-1-yl]ethyl}cyclohexyl)propanamide] | 118
34 | O=C(N[C@H]1CC[C@H](CCN2CCN(c3cccc(F)c3)CC2)CC1)C1=Cc2ccccc2C1 [Example 407, 1H-Indene-2-carboxylic acid (4-{2-[4-(3-fluorophenyl)piperazin-1-yl]ethyl}cyclohexyl) amide] | 242
35 | CC(=O)CN1CCC(CCN2CCN(c3ccc(F)c(C#N)c3F)CC2)CC1 [Example 690, 2,6-Difluoro-3-(4-{2-[1-(2-oxo-propyl)piperidin-4-yl]ethyl}piperazin-1-yl)benzonitrile] | 108
36 | CC(=O)CN1CCC(CCN2CCN(c3ccccc3C(C)C)CC2)CC1.Cl.Cl | 260
37 | Cc1cccc(N2CCN(CC[C@H]3CC[C@H](NC(=O)CC(F)(F)F)CC3)CC2)c1 [Example 235, 3,3,3-Trifluoro-N-{4-[2-(4-m-tolylpiperazin-1-yl)ethyl]cyclohexyl}propanamide] | 170
38 | COc1cccc(N2CCN(CC[C@H]3CC[C@H](NC(=O)CCC#N)CC3)CC2)c1 [Example 418, 3-Cyano-N-(4-{2-[4-(3-methoxyphenyl)piperazin-1-yl]ethyl}cyclohexyl)propanamide] | 140
39 | CCCc1cccc(N2CCN(CC[C@H]3CC[C@H](NC(=O)CCCC#N)CC3)CC2)c1 [Example 312, 4-Cyano-N-(4-{2-[4-(3-propylphenyl)piperazin-1-yl]ethyl}cyclohexyl)butanamide] | 142
40 | N#CCCCC(=O)N[C@H]1CC[C@H](CCN2CCN(c3cccc(C(F)(F)F)c3F)CC2)CC1 [Example 172, 4-Cyano-N-(4-{2-[4-(2-fluoro-3-trifluoromethylphenyl)piperazin-1-yl]ethyl}cyclohexyl)butanamide] | 158 to 162
41 | Cl.N#CCCCC(=O)N[C@H]1CC[C@H](CCN2CCN(c3ccccc3C(F)(F)F)CC2)CC1 | 248
42 | N#CCC(=O)N[C@H]1CC[C@H](CCN2CCN(c3ccc4c(c3)CCCC4)CC2)CC1 [Example 211, 2-Cyano-N-(4-{2-[4-(5,6,7,8-tetrahydronaphthalen-2-yl)piperazin-1-yl]ethyl}cyclohexyl)acetamide] | 200
43 | COCCCC(=O)N[C@H]1CC[C@H](CCN2CCN(c3cc(C(F)(F)F)cc(C(F)(F)F)c3)CC2)CC1 [Example 741, N-(4-{2-[4-(3,5-Bistrifluoro-methylphenyl)piperazin-1-yl]ethyl}cyclohexyl)-4-methoxybutanamide] | 168
44 | Cc1cccc(N2CCN(CC[C@H]3CC[C@H](NC(=O)CC#N)CC3)CC2)c1C [Example 219, 2-Cyano-N-(4-{2-[4-(2,3-dimethylphenyl)piperazin-1-yl]ethyl}cyclohexyl)acetamide] | 166
